The experiment concerns the target T1, hTAAR5 (Homo sapiens, UniProt O14804).
T1 construct: gene TAAR5; full length; N-terminal HA tag (YPYDVPDYA) and first 21 residues of bovine rhodopsin (Rho-tag) kept; vector pcDps; transient in HEK293 cells
T1 sequence (O14804 1-337): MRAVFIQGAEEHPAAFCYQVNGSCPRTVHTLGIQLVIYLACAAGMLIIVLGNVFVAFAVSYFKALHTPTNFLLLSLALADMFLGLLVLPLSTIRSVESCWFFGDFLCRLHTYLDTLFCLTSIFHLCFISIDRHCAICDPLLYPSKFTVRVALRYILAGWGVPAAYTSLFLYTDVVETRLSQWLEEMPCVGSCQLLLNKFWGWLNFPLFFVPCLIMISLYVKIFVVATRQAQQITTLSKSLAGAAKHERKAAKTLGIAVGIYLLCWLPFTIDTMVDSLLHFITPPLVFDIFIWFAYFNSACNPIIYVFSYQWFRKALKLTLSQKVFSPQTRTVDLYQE
As to the kind of experiment: NFAT-RE luciferase reporter (IP3-luc), HEK293. Type of experiment: cell-based. To be noted: inverse agonist; reduction of basal Gq/11 (IP3) signaling; 6 h, 37 °C; 1 nM to 100 μM. On the technique in general: A reporter such as luciferase makes a cellular process visible.

Each structure is given as a SMILES string.

For orientation: EC50 means the concentration at which the effect is half-maximal. Lower therefore signals a more potent agent.

Take `NCCc1ccc(Oc2ccc(O)cc2)c(I)c1` [3-T1AM]: the response was half-maximal at 4.4 ± 0.9 µM (EC50).

The record behind these values is paper PMC4382497, “Inverse Agonistic Action of 3-Iodothyronamine at the Human Trace Amine-Associated Receptor 5” (PLoS ONE, 2015).
